Source: patent US10253069B2, “Compositions and methods for regulating arterial tone” (University of Virginia Patent Foundation, priority 2012, dated 2019)

How the values were obtained:
[1] = system: thoracodorsal (TD) arteries; test: Vasoreactivity of cannulated, pressurized TD arteries (pressure myograph) after siRNA transfection or PTU/L-NAME treatment; parameters: species or system mouse; details: for Contraction to 5-HT 50 nM post 15 min, % initial diameter: 15 minutes after stimulation, PTU 50 μM, n = 3; for PE CCRC Emax (% initial diameter): phenylephrine, TD arteries pretreated with PTU (50 μM) and/or L-NAME (100 μM)
Method: TD arteries (maximal internal diameter 261.7±4.2 μm) were isolated, cannulated in a pressure myograph (Danish MyoTechnology) and secured with 10.0 nylon sutures as described in^7. The TD arteries were placed in a circulating bath of Krebs-HEPES and perfused with Krebs-HEPES supplemented with 1% BSA. Arteries were maintained in a no flow state and pressurized at 80 mmHg as previously described^1. […] Acetylcholine (1 μM) was added to the bath to verify the integrity of the endothelium. […] At the end of the experiments, the solution was replaced by a calcium-free Krebs supplemented with 2 mM ethylenbis-(oxyethylenenitrolo) tetra-acetic acid (EGTA) and 10 μM sodium nitroprussiate in order to measure the maximal diameter. […] Internal diameters were calculated and results are expressed as a percentage of initial inner diameter (for PE dose responses) or percent dilation (for Ach dose responses). […] The TD arteries were isolated and cannulated as described above. The vessel lumen was perfused with Krebs-HEPES buffer supplemented with 1% BSA to flush out red blood cells and 100 μL of Nucleofector transfection reagent (HCAEC Nucleofector kit, Lonza) containing 10 nM control, Hb α or CytB5R3 siRNAs (see Table below) was perfused into the lumen. Arteries were then removed from the cannula and the ends ligated with 10-0 nylon sutures to maintain the transfection reagent and siRNA in the blood vessel lumen. Ligated arteries were then transferred to a transfection cuvette (Lonza) containing 100 μL Nucleofector transfection reagent and electroporated using the Nucleofector II Device (Lonza) using setting A-034. Transfected TDA were removed from cuvettes, re-cannulated and perfused with RPMI media+1% BSA to remove residual transfection reagent and siRNA. Arteries were cultured for 15-18 hours at 37° C. in RPMI+1% BSA and used for vasoreactivity studies or processed for immunofluorescence microscopy. To eliminate variability of transfection efficiency and vessel viability, one control siRNA vessel and one Hb α/CytBSR3 vessel were transfected daily.

TD arteries = test: Nitric oxide diffusion assay, ex vivo TD arteries; parameters: species or system mouse; details: isolated TD arteries
Method: (§1) Anaerobic aqueous NO was generated by bubbling 100% helium into a beaker containing deionized water. Following 30 minutes, 99.5% NO′ gas was bubbled for an additional 40 minutes giving a final saturated concentration of approximately 1.7 mM.
(§2) Both ECs and SMCs were cultured on 12 mm Transwells as described above. After three days of co-culture, media was removed and replaced with 500 μL of Krebs buffer on each side of the Transwells and cells were allowed to equilibrate for 15 minutes. Next, 100 μL of anaerobic aqueous NO was added to the 500 μLs of Kreb's buffer on the EC side of the Transwell. After 5 minutes, 100 μL of Krebs buffer was immediately removed and injected into a Seivers Nitric Oxide Analyzer (NOA). Data was quantified using Origin Pro 6.0 by calculating the area under the peak over time. Differences between samples were expressed as μM change. For experiments on ex vivo samples, TD arteries were cannulated (as described above) in puddle of 100 μL of Krebs buffer created by parafilm. […] Data was quantified using Origin Pro 6.0 by calculating the area under the peak over time. Differences between samples were expressed as μM change.

[2] = system: VCCC (human coronary ECs and SMCs); test: Nitric oxide diffusion assay, VCCC; type: cell-based
Method: as §1, §2

thoracodorsal arteries = test: Pressure myography on thoracodorsal arteries, phenylephrine dose response with peptides; parameters: species or system mouse
[3] = system: eNOS phosphorylation on serine 1177; test: Western blot of pS1177 eNOS in coronary endothelial cells; type: cell-based, human; details: 5 μmol/L peptide, 20 minutes
Method: (§3) Primary coronary endothelial cells (Lonza) were cultured on plastic 6-well dishes as previously described^9. For studies involving basal NO release, endothelial cells were incubated with 5 μmol/L of Scr X or Hb α X for 20 minutes followed by medium collection and nitrite measurements as described below. For bradykinin studies, coronary endothelial cells were grown to confluence followed by serum starvation overnight in a cocktail of Lonza EGM-2 medium supplemented with EGM-2 bullet kit and Opti MEM reduced growth medium using a ratio of 1:9 respectively. The next day, endothelial cells were incubated with Scr X or Hb α X peptide for 20 minutes followed by the addition of 10 μM bradykinin (Sigma) for 5 minutes followed by medium collection for nitrite measurements as described below.
Endothelial cells were harvested in lysis buffer, sonicated and subjected to electrophoresis using 10% Bis-Tris gels (Invitrogen) as previously described^13. Proteins were transferred to nitrocellulose, incubated with phospho-eNOS S1177 (BD Biosciences) or total eNOS (Sigma) and visualized and quantitated using Li-Cor Odyssey Imager as previously described^14.

[4] = system: human coronary endothelial cells; test: Nitrite measurements from media of coronary endothelial cells; type: cell-based; details: unstimulated cells
Method: as §3
Quantitation of nitrite in culture medium was measured by chemiluminescence using a Sievers nitric oxide analyzer according to manufacturer's instructions. Quantitation of peaks was analyzed using Origin Pro 6.0 as previously described^9.

Compound	Contraction to 5-HT 50 nM post 15 min, % initial diameter ([1]; TD arteries)	PE CCRC Emax (% initial diameter) [1]	NO diffusion across the vessel wall (TD arteries)	NO diffusion in the VCCC [2]	also measured
COC(=O)[C@@H](N)CCCNC(=N)N[N+](=O)[O-] [L-NAME, L-N^G-nitroarginine methyl ester]	57.0 ± 3.29 n.s. % initial diameter	62.6 ± 6.1 % initial diameter			
CCCc1cc(=O)[nH]c(=S)[nH]1 [PTU, propylthiouracil]	64.1 ± 4.5 n.s. % initial diameter	91.4 ± 2.5 % initial diameter	increased NO diffusion	increased NO diffusion	Reversibility of the PTU effect with L-thyroxine supplementation ([1]; L-thyroxin 50 μM + PTU, 10 μM PE stimulation): not reversible; Basal tone ([1]; TD arteries): No difference in basal tone; Ach CCRC Emax (% Dilation) ([1]; acetylcholine, TD arteries pretreated with PTU): 94.9 ± 1.7 % Dilation; PE and Ach responses with the addition of L-NAME ([1]; plus NOS inhibitor L-NAME, TD arteries): comparable to control conditions
[C-]#[O+] [carbon monoxide]			increased NO diffusion	increase in NO diffusion	
Scrambled control peptide FPYFSTKLTT (SEQ ID NO:40) with HIV-tat tag YGRKKRRQRRR at the N-terminus [Scr X]					Constriction in phenylephrine dose response curves (thoracodorsal arteries; compared to untreated arteries): no difference from control; Emax, vascular reactivity dose response curves (thoracodorsal arteries; phenylephrine dose response, thoracodorsal arteries perfused with peptide): 38.3 ± 2.4 % initial diameter; Basal eNOS phosphorylation on serine 1177 [3]: no differences; Accumulation of nitrite in the culture medium, basal [4]: no differences
